Reference: the supplement of paper PMC10307832

Columns and labels:
Assay in all cases: relative viability (nuclei count vs DMSO), 5 days (fraction); higher = more cells survive
Neratinib + Luminespib = compound: CCOc1cc2ncc(C#N)c(Nc3ccc(OCc4ccccn4)c(Cl)c3)c2cc1NC(=O)/C=C/CN(C)C [Neratinib] + CCNC(=O)c1noc(-c2cc(C(C)C)c(O)cc2O)c1-c1ccc(CN2CCOCC2)cc1 [Luminespib] (partner 0.01 µM)
Outline: (§1)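 Lung cancer cell lines in 1536-well plates were dosed by pin tool the day after seeding, either with one drug alone or with a fixed anchor-drug dose plus five library-drug doses (not always all listed) in √10 steps. After 5 days, cells were fixed and their nuclei stained in one step (final 0.05% Triton X-100, 1% formaldehyde, 1 ug/ml Hoechst), then counted on 4× images. Relative viability is the nuclei count in treated wells divided by that in vehicle wells. Values are medians of duplicate plates.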

Neratinib + Olaparib = compound: CCOc1cc2ncc(C#N)c(Nc3ccc(OCc4ccccn4)c(Cl)c3)c2cc1NC(=O)/C=C/CN(C)C [Neratinib] + O=C(c1cc(Cc2n[nH]c(=O)c3ccccc23)ccc1F)N1CCN(C(=O)C2CC2)CC1 [Olaparib] (partner 8 µM)
Outline: as §1

Neratinib + Decitabine = compound: CCOc1cc2ncc(C#N)c(Nc3ccc(OCc4ccccn4)c(Cl)c3)c2cc1NC(=O)/C=C/CN(C)C [Neratinib] + Nc1ncn([C@H]2C[C@H](O)[C@@H](CO)O2)c(=O)n1 [Decitabine] (partner 2 µM)
Outline: as §1

Neratinib + Lapatinib = compound: CCOc1cc2ncc(C#N)c(Nc3ccc(OCc4ccccn4)c(Cl)c3)c2cc1NC(=O)/C=C/CN(C)C [Neratinib] + CS(=O)(=O)CCNCc1ccc(-c2ccc3ncnc(Nc4ccc(OCc5cccc(F)c5)c(Cl)c4)c3c2)o1 [Lapatinib] (partner 2 µM)
Outline: as §1

Cell Line	relative viability (Neratinib + Luminespib; first compound 0.01 µM)	relative viability (Neratinib + Luminespib; first compound 0.03162 µM)	relative viability (Neratinib + Luminespib; first compound 0.1 µM)	relative viability (Neratinib + Luminespib; first compound 0.3162 µM)	relative viability (Neratinib + Luminespib; first compound 1 µM)	relative viability (Neratinib + Olaparib; first compound 0.01 µM)	relative viability (Neratinib + Olaparib; first compound 0.03162 µM)	relative viability (Neratinib + Olaparib; first compound 0.1 µM)	relative viability (Neratinib + Olaparib; first compound 0.3162 µM)	relative viability (Neratinib + Decitabine; first compound 0.03162 µM)	relative viability (Neratinib + Decitabine; first compound 0.1 µM)	relative viability (Neratinib + Decitabine; first compound 0.3162 µM)	relative viability (Neratinib + Decitabine; first compound 1 µM)	relative viability (Neratinib + Lapatinib; first compound 0.01 µM)	relative viability (Neratinib + Lapatinib; first compound 0.03162 µM)	relative viability (Neratinib + Lapatinib; first compound 0.1 µM)	relative viability (Neratinib + Lapatinib; first compound 0.3162 µM)	relative viability (Neratinib + Lapatinib; first compound 1 µM)	relative viability (Neratinib + Olaparib; first compound 1 µM)	relative viability (Neratinib + Decitabine; first compound 0.01 µM)
LU99A	0.268	0.19	0.231	0.333	0.22	0.251	0.286	0.246	0.268	1.12	0.752	0.952	0.578	1.04	1.05	0.692	0.587	0.385	–	–
NCI-H1355	0.709	0.821	0.725	0.6	0.465	0.772	0.719	0.7	0.701	0.326	0.337	0.372	0.341	1.09	1.06	1.04	0.984	0.938	0.547	0.343
NCI-H650	0.814	0.888	0.621	0.722	0.392	0.39	0.434	0.372	0.318	0.347	0.328	0.326	0.345	1.04	1.02	0.996	–	1.04	0.392	0.321
PC-14	0.176	0.129	0.156	0.116	0.129	0.188	0.344	0.37	0.233	0.285	0.241	0.194	0.108	0.365	0.327	0.267	0.285	0.302	0.102	0.217
NCI-H838	0.252	0.269	0.258	0.22	0.21	0.762	0.785	0.798	0.649	0.514	0.456	0.463	0.464	1.11	1.2	0.949	0.947	0.468	0.399	0.459
NCI-H727	0.382	0.337	0.328	0.312	0.352	0.796	0.678	–	0.764	0.846	–	0.796	0.717	0.898	0.994	–	0.928	0.786	0.613	0.897
201T	1.08	1.02	0.977	1.1	0.931	0.811	0.813	0.737	0.782	0.857	–	0.853	0.84	1.07	0.943	0.981	1.08	1.05	0.838	0.858
RERF-LC-KJ	1.45	1.18	1.16	1.14	0.531	0.925	0.911	0.828	0.848	0.744	0.618	0.72	0.457	0.78	0.923	0.854	–	0.915	0.468	0.777
NCI-H596	1.04	1.04	1.02	1.02	0.758	0.633	0.726	0.622	0.659	1.1	1	0.986	0.863	1.2	1.06	–	1.13	0.859	0.574	1.88
